Our source for the AC40 values is PubChem BioAssay AID720727 (Broad Institute, 2013).

The source made the active and inactive calls.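 How the source made its calls: active means compound whose rising-signal curve crosses activity 40 at or below its top valid dose; inconclusive means flat curve holding activity 30 to 70, or poor fit; inactive means the rest.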 Bounds are passed on as bounds.

For the assay, the system named is Huh7 miR-21 level, qRT-PCR, 48 h. The assay is described as follows: miR-21 fold change in Huh7 hepatoma cells – cell-based, qRT-PCR, dry powder, selectivity assay for miR-122 activator project, dose response (AID 720727). Background: Real-time PCR tracks product formation cycle by cycle.
Take `CN1C(=O)c2cc(NC(=O)c3cccc(F)c3)ccc2OC[C@H]2O[C@@H](CC(=O)O)CC[C@H]21`: the AC40 was 11.7 µM.

As for `COCC(=O)N(C)C[C@H]1Oc2cc(-c3ccccc3F)ccc2S(=O)(=O)N([C@H](C)CO)C[C@H]1C`, the AC40 was 18.8 µM.

As for `Cc1cc(C(C)(C)C)cc(S(=O)(=O)NCCc2ccncc2)c1C`, the AC40 was 33.5 µM.

With `COc1ccc(S(=O)(=O)N(C)C[C@@H]2Oc3ncc(/C=C/c4ccccc4)cc3C(=O)N([C@@H](C)CO)C[C@@H]2C)cc1`, the AC40 is 14.9 µM.

In the case of `CN(C)CCCOc1nn(Cc2ccccc2)c2ccccc12`, the AC40 is 11.4 µM.

As for `O=C(CN=C1NS(=O)(=O)c2ccccc21)Nc1ccccc1N1CCCCCC1`, the AC40 is 28.4 µM.

For the molecule `CN(CC(=O)Nc1cccc(Cl)c1)S(=O)(=O)c1ccc2c(c1)n(C)c(=O)c(=O)n2C`, the AC40 was 29.8 µM.

Consider `COCC(=O)N(C)C[C@H]1Oc2cc(C#Cc3cccnc3)ccc2S(=O)(=O)N([C@H](C)CO)C[C@H]1C`, for which the AC40 is 4.22 µM.

With `CCOC(=O)N1CCC(NC(=O)c2ccc3c(c2)sc2nc(-c4ccccc4)cn23)CC1`, the AC40 is 17.5 µM.

As to `CNC[C@@H]1Oc2cc(C#CC3CCCCC3)ccc2S(=O)(=O)N([C@@H](C)CO)C[C@@H]1C`, the AC40 is 29.2 µM.

Turning to `C[C@H]1CN([C@@H](C)CO)C(=O)c2cc(-c3ccc(C#N)cc3)cnc2O[C@H]1CN(C)C(=O)c1ccccc1`, the AC40 is 30.6 µM.

For `CCn1cc(C(=O)O)c(=O)c2cc(F)c(N3CCNCC3)nc21`, the AC40 is > 35 µM (inactive).

In the case of `COCC(=O)N(C)C[C@@H]1Oc2ncc(-c3ccc(C#N)cc3)cc2C(=O)N([C@@H](C)CO)C[C@@H]1C`, the AC40 is 18.4 µM.

As to `Cc1cccc(NC(=O)Nc2ccc3c(c2)C(=O)N(C)[C@@H]2CC[C@H](CC(=O)NCc4ccccc4Cl)O[C@H]2CO3)c1`, the AC40 is 17.9 µM.

As for `CN1C(=O)c2cc(NC(=O)c3cccc(F)c3)ccc2OC[C@H]2O[C@@H](CC(=O)O)CC[C@@H]21`, the AC40 is 32.5 µM.
